Laboratory results published in US9567302B2, “Carbamate compounds and of making and using same” (Abide Therapeutics, Inc., priority 2012, dated 2017).

Legend:
Format in all cases: biochemical
Parameters in all cases: from tissue; host or cells: mouse brain membrane fraction
ABHD6 = target: T1, ABHD6 (Mus musculus, UniProt Q8R2Y0); assay: In vitro competitive activity-based protein profiling (FP-Rh), mouse ABHD6; conditions: Table 1, mouse proteome, 30 min preincubation at 37° C.
T1 sequence (Q8R2Y0 1-336): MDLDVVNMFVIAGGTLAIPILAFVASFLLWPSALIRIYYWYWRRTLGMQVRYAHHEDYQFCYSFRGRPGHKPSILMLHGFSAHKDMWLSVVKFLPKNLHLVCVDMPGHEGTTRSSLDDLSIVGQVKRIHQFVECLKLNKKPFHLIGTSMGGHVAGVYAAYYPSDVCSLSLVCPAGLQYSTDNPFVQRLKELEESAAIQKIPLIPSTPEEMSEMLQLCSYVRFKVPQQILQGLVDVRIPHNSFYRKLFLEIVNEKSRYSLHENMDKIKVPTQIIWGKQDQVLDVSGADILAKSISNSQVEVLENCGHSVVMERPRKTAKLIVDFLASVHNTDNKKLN
Protocol: (§1) In Vitro Competitive Activity-Based Protein Profiling.
(§2) Proteomes (mouse brain membrane fraction or cell lysates) (50 μL, 1.0 mg/ml total protein concentration) were preincubated with varying concentrations of inhibitors at 37° C. After 30 min, FP-Rh (1.0 μL, 50 μM in DMSO) was added and the mixture was incubated for another 30 min at 37° C. Reactions were quenched with SDS loading buffer (50 μL—4×) and run on SDS-PAGE.

FAAH = target: T2, FAAH (Mus musculus, UniProt O08914); assay: In vitro competitive activity-based protein profiling (FP-Rh), mouse FAAH; conditions: Table 1, mouse proteome, 30 min preincubation at 37° C.
T2 sequence (O08914 1-579): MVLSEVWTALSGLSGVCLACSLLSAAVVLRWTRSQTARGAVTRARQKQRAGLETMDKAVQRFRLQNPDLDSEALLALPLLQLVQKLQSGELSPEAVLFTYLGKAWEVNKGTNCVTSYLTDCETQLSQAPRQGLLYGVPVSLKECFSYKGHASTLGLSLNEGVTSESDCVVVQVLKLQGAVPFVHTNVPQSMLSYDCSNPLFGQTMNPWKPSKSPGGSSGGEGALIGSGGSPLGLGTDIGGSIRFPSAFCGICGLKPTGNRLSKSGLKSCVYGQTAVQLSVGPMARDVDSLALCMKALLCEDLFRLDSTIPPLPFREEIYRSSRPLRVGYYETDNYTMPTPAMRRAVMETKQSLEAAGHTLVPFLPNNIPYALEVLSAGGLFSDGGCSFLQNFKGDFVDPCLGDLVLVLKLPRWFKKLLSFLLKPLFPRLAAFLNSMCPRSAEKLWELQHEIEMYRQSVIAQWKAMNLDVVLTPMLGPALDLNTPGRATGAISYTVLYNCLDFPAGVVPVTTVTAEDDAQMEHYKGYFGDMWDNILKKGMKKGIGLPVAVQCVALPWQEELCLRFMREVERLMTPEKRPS
Protocol: as §1, §2

MAGL = target: T3, MAGL (Mus musculus, UniProt O35678); assay: In vitro competitive activity-based protein profiling (FP-Rh), mouse MAGL; conditions: 30 min preincubation at 37° C.
T3 sequence (O35678 1-303): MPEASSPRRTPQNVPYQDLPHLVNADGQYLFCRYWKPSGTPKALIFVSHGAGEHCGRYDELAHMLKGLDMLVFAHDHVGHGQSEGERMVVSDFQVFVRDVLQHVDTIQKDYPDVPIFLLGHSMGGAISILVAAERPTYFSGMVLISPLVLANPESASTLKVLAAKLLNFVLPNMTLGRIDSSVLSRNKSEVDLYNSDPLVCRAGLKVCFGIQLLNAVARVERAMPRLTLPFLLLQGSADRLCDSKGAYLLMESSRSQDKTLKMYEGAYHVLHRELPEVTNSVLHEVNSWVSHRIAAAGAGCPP
Protocol: as §1, §2

O=C(ON1C(=O)CCC1=O)N1CCN(C(c2ccc(Cl)cc2)c2ccc(Cl)cc2)CC1 [Example 2, 2,5-Dioxopyrrolidin-1-yl 4-[bis(4-chlorophenyl)methyl]piperazine-1-carboxylate]
IC50 (ABHD6): 100 to 1000 nM
IC50 (FAAH): > 10000 nM

CC(C)(C)OC(=O)N1CCN(C(=O)ON2C(=O)CCC2=O)CC1 [Example 4, 1-tert-Butyl 4-(2,5-dioxopyrrolidin-1-yl) piperazine-1,4-dicarboxylate]
IC50 (ABHD6): > 10000 nM
IC50 (MAGL; Table 1, mouse proteome): > 10000 nM
IC50 (FAAH): > 10000 nM

O=C(NCCc1ccc(Oc2ccccc2)cc1)ON1C(=O)CCC1=O [Example 6, 2,5-Dioxopyrrolidin-1-yl N-[2-(4-phenoxyphenyl)ethyl]carbamate]
IC50 (ABHD6): > 10000 nM
IC50 (MAGL; Table 1, mouse proteome): > 10000 nM
IC50 (FAAH): 100 to 1000 nM

CCN(Cc1ccccc1)C(=O)ON1C(=O)CCC1=O [Example 9, 2,5-Dioxopyrrolidin-1-yl N-benzyl-N-ethylcarbamate]
IC50 (ABHD6): > 10000 nM
IC50 (MAGL; Table 1, mouse proteome): > 10000 nM
IC50 (FAAH): > 10000 nM

CC1CCCCN1C(=O)ON1C(=O)CCC1=O (centres unmarked) [Example 10, 2,5-Dioxopyrrolidin-1-yl 2-methylpiperidine-1-carboxylate]
IC50 (ABHD6): > 10000 nM
IC50 (MAGL; Table 1, mouse proteome): > 10000 nM
IC50 (FAAH): > 10000 nM

O=C1CCC(=O)N1OC(=O)N1CCCCC1CO (centres unmarked) [Example 11, 2,5-Dioxopyrrolidin-1-yl 2-(hydroxymethyl)piperidine-1-carboxylate]
IC50 (ABHD6): > 10000 nM
IC50 (MAGL; Table 1, mouse proteome): > 10000 nM
IC50 (FAAH): > 10000 nM

CN(Cc1cccc(-c2ccncc2)c1)C(=O)ON1C(=O)CCC1=O [Example 12, 2,5-Dioxopyrrolidin-1-yl N-methyl-N-{[3-(pyridin-4-yl)phenyl]methyl}carbamate]
IC50 (ABHD6): 100 to 1000 nM
IC50 (MAGL; Table 1, mouse proteome): 1000 to 10000 nM
IC50 (FAAH): > 10000 nM

CN(Cc1cccc(-c2cccnc2)c1)C(=O)ON1C(=O)CCC1=O [Example 13, 2,5-Dioxopyrrolidin-1-yl N-methyl-N-{[3-(pyridin-3-yl)phenyl]methyl}carbamate]
IC50 (ABHD6): > 10000 nM
IC50 (MAGL; Table 1, mouse proteome): > 10000 nM
IC50 (FAAH): > 10000 nM

Cc1nc(-c2cccc(CN(C)C(=O)ON3C(=O)CCC3=O)c2)no1 [Example 14, 2,5-Dioxopyrrolidin-1-yl N-methyl-N-{[3-(5-methyl-1,2,4-oxadiazol-3-yl)phenyl]methyl}carbamate]
IC50 (ABHD6): 100 to 1000 nM
IC50 (MAGL; Table 1, mouse proteome): 1000 to 10000 nM
IC50 (FAAH): > 10000 nM

CN(CCc1ccccc1)C(=O)ON1C(=O)CCC1=O [Example 15, 2,5-Dioxopyrrolidin-1-yl N-methyl-N-(2-phenylethyl)carbamate]
IC50 (ABHD6): > 10000 nM
IC50 (MAGL; Table 1, mouse proteome): > 10000 nM
IC50 (FAAH): > 10000 nM

O=C(C1CCCCN1C(=O)ON1C(=O)CCC1=O)N1CCOCC1 (centres unmarked) [Example 16, 2,5-Dioxopyrrolidin-1-yl 2-(morpholine-4-carbonyl)piperidine-1-carboxylate]
IC50 (ABHD6): > 10000 nM
IC50 (MAGL; Table 1, mouse proteome): > 10000 nM
IC50 (FAAH): > 10000 nM

O=C(ON1C(=O)CCC1=O)N1CCCCC1 [Example 17, 2,5-Dioxopyrrolidin-1-yl piperidine-1-carboxylate]
IC50 (MAGL; Table 1, mouse proteome): > 10000 nM
IC50 (FAAH): > 10000 nM

Cc1cc(N2CCN(C(=O)ON3C(=O)CCC3=O)CC2)c2ccccc2n1 [Example 18, 2,5-Dioxopyrrolidin-1-yl 4-(2-methylquinolin-4-yl)piperazine-1-carboxylate]
IC50 (ABHD6): 1000 to 10000 nM
IC50 (MAGL; Table 1, mouse proteome): 100 to 1000 nM
IC50 (FAAH): > 10000 nM

CCCN(Cc1ccc(N2CCCCC2)cc1)C(=O)ON1C(=O)CCC1=O [Example 19, 2,5-Dioxopyrrolidin-1-yl N-{[4-(piperidin-1-yl)phenyl]methyl}-N-propylcarbamate]
IC50 (ABHD6): > 10000 nM
IC50 (MAGL; Table 1, mouse proteome): > 10000 nM
IC50 (FAAH): > 10000 nM

O=C(NC1CCCc2ccccc21)ON1C(=O)CCC1=O (centres unmarked) [Example 20, 2,5-Dioxopyrrolidin-1-yl N-(1,2,3,4-tetrahydronaphthalen-1-yl)carbamate]
IC50 (ABHD6): > 10000 nM
IC50 (MAGL; Table 1, mouse proteome): > 10000 nM
IC50 (FAAH): > 10000 nM

O=C(ON1C(=O)CCC1=O)N1CCC(Cc2ccccc2)CC1 [Example 21, 2,5-Dioxopyrrolidin-1-yl 4-benzylpiperidine-1-carboxylate]
IC50 (ABHD6): 100 to 1000 nM
IC50 (MAGL; Table 1, mouse proteome): 100 to 1000 nM
IC50 (FAAH): 1000 to 10000 nM

O=C1CCC(=O)N1OC(=O)N1CCCCC1Cc1ccccc1 (centres unmarked) [Example 22, 2,5-Dioxopyrrolidin-1-yl 2-benzylpiperidine-1-carboxylate]
IC50 (ABHD6): > 10000 nM
IC50 (MAGL; Table 1, mouse proteome): > 10000 nM
IC50 (FAAH): > 10000 nM

O=C1CCC(=O)N1OC(=O)N1CCCCC1c1ccccc1 (centres unmarked) [Example 23, 2,5-Dioxopyrrolidin-1-yl 2-phenylpiperidine-1-carboxylate]
IC50 (ABHD6): > 10000 nM
IC50 (MAGL; Table 1, mouse proteome): > 10000 nM
IC50 (FAAH): > 10000 nM

O=C1CCC(=O)N1OC(=O)N1CCCCC1C(F)(F)F (centres unmarked) [Example 24, 2,5-Dioxopyrrolidin-1-yl 2-(trifluoromethyl)piperidine-1-carboxylate]
IC50 (ABHD6): > 10000 nM
IC50 (MAGL; Table 1, mouse proteome): > 10000 nM
IC50 (FAAH): > 10000 nM

O=C1CCC(=O)N1OC(=O)N1CCCCC1CCc1ccccc1 (centres unmarked) [Example 25, 2,5-Dioxopyrrolidin-1-yl 2-(2-phenylethyl)piperidine-1-carboxylate]
IC50 (ABHD6): > 10000 nM
IC50 (MAGL; Table 1, mouse proteome): > 10000 nM
IC50 (FAAH): > 10000 nM

O=C(NCCc1ccc2ccccc2c1)ON1C(=O)CCC1=O [Example 27, 2,5-Dioxopyrrolidin-1-yl N-[2-(naphthalen-2-yl)ethyl]carbamate]
IC50 (ABHD6): > 10000 nM
IC50 (MAGL; Table 1, mouse proteome): > 10000 nM

O=C(ON1C(=O)CCC1=O)N1CC[C@@H](OCc2ccccc2)C1 [Example 39, 2,5-Dioxopyrrolidin-1-yl (3R)-3-(benzyloxy)pyrrolidine-1-carboxylate]
IC50 (MAGL; Table 1, mouse proteome): > 10000 nM
IC50 (FAAH): > 10000 nM

O=C(ON1C(=O)CCC1=O)N1CC[C@H](OCc2ccccc2)C1 [Example 40, 2,5-Dioxopyrrolidin-1-yl (3S)-3-(benzyloxy)pyrrolidine-1-carboxylate]
IC50 (MAGL; Table 1, mouse proteome): > 10000 nM
IC50 (FAAH): > 10000 nM

CN(C)C(=O)ON1C(=O)CNC1=O [Example 58, 2,5-Dioxoimidazolidin-1-yl dimethylcarbamate]
IC50 (FAAH): > 10000 nM

Cc1cc(N2CCOCC2)ccc1CN1CCN(C(=O)ON2C(=O)CCC2=O)CC1 [Example 63, 2,5-Dioxopyrrolidin-1-yl 4-(2-methyl-4-morpholinobenzyl)piperazine-1-carboxylate]
IC50 (MAGL; Table 2, mouse proteome): 1000 to 10000 nM

O=C(ON1C(=O)CCC1=O)N1CCN(Cc2ccc(Cl)cc2)CC1 [Example 64, 2,5-Dioxopyrrolidin-1-yl 4-(4-chlorobenzyl)piperazine-1-carboxylate]
IC50 (MAGL; Table 2, mouse proteome): 100 to 1000 nM

O=C(ON1C(=O)CCC1=O)N1CCN(Cc2ccc(Br)cc2N2CCCC2)CC1 [Example 72, 2,5-Dioxopyrrolidin-1-yl 4-(4-bromo-2-(pyrrolidin-1-yl)benzyl)piperazine-1-carboxylate]
IC50 (MAGL; Table 2, mouse proteome): < 100 nM

CC1CN(C(=O)ON2C(=O)CCC2=O)CCN1C(c1ccc(Cl)cc1)c1ccc(Cl)cc1 (centres unmarked) [Example 151, 2,5-Dioxopyrrolidin-1-yl 4-[bis(4-chlorophenyl)methyl]-3-methylpiperazine-1-carboxylate]
IC50 (MAGL; Table 2, mouse proteome): 100 to 1000 nM

CC1CN(C(=O)ON2C(=O)CCC2=O)CCN1Cc1ccc(-c2ccccc2)cc1 (centres unmarked) [Example 160, 2,5-Dioxopyrrolidin-1-yl 3-methyl-4-[(4-phenylphenyl)methyl]piperazine-1-carboxylate]
IC50 (MAGL; Table 2, mouse proteome): 100 to 1000 nM

O=C(ON1C(=O)CCC1=O)N1CCN(Cc2ccc(-c3ccccc3)cc2N2CCOCC2)CC1 [Example 161, 2,5-Dioxopyrrolidin-1-yl 4-((3-morpholino-[1,1′-biphenyl]-4-yl)methyl)piperazine-1-carboxylate]
IC50 (MAGL; Table 2, mouse proteome): 100 to 1000 nM
